Experimental data: US6914045B2, “Glycopeptide antibiotics” (Wyeth Holdings Corporation, priority 2001, dated 2005)
Converted amounts (≈) assume the structure as drawn.

How the values were obtained:
Test in all cases: in vitro antibacterial evaluation, MIC by broth dilution
Assay type in all cases: cell-based
[1] = tested on: Streptococcus sp.; conditions: broth dilution, 18 hours at 35° C.
Outline: (§1)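 Broth dilution per NCCLS M7-A2 in Mueller-Hinton II medium, inoculum 5×10^5 CFU/mL, antibiotic range 64-0.06 μg/mL. MIC taken as lowest concentration inhibiting growth; Gram-positive panel includes recent clinical isolates resistant to methicillin, penicillin and/or vancomycin.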

[2] = tested on: Enterococcus sp.; conditions: broth dilution, 18 hours at 35° C.
Outline: as §1

[3] = tested on: Escherichia coli; conditions: 18 hours at 35° C.
Outline: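 MIC = lowest antibiotic concentration preventing visible growth; inoculum 5×10^5 CFU/mL; drug range 64-0.06 μg/mL; Muller-Hinton II […]; NCCLS M7-A2 guidance.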

[4] = tested on: Staphylococcus sp.; conditions: broth dilution, 18 hours at 35° C.
Outline: as §1

CCC(C)C(=O)OC1C(CO)OC(OC2C(CO)OC(Oc3ccc(CC4NC(=O)C(C(C)c5ccccc5)NC(=O)CNC(=O)C(CO)NC(=O)C(C(O)C5CNC(=N)N5C5OC(CO)C(O)C(O)C5O)NC(=O)C(C(O)C5CNC(=N)N5)NC4=O)cc3)C(O)C2O)C(O)C1O (stereo not drawn) [Example 278c, Cyclo[glycyl-β-methylphenylalanyl-O-[4-O-[4-O-(2-methylbutanoyl)hexopyranosyl]hexopyranosyl]tyrosyl-3-(2-iminoimidazolidin-4-yl)seryl-3-(3-hexopyranosyl-2-iminoimidazolidin-4-yl)serylseryl]]
MIC Streptococcus pneumoniae (ATCC 6301) ([1]; strain ATCC 6301): 1 µg/mL (≈ 0.725 µM) | MIC Streptococcus pneumoniae (GC 1894) ([1]; strain GC 1894): 0.5 µg/mL (≈ 0.362 µM) | MIC Streptococcus pyogenes (GC 4563) ([1]; strain GC 4563): 1 µg/mL (≈ 0.725 µM) | MIC Streptococcus agalactiae (GC 4564) ([1]; strain GC 4564): 2 µg/mL (≈ 1.45 µM) | MIC Streptococcus pneumoniae (GC 4565) ([1]; strain GC 4565): 1 µg/mL (≈ 0.725 µM) | MIC Enterococcus avium (GC 4558) ([2]; Enterococcus avium (GC 4558)): 32 µg/mL (≈ 23.2 µM) | MIC Enterococcus faecalis (ATCC 29212) ([2]; Enterococcus faecalis (ATCC 29212)): 32 µg/mL (≈ 23.2 µM) | MIC Enterococcus faecalis (GC 4553) ([2]; Enterococcus faecalis (GC 4553)): 32 µg/mL (≈ 23.2 µM) | MIC Enterococcus faecalis (GC 4554) ([2]; Enterococcus faecalis (GC 4554)): 32 µg/mL (≈ 23.2 µM) | MIC Enterococcus faecalis (GC 6189) ([2]; Enterococcus faecalis (GC 6189)): 32 µg/mL (≈ 23.2 µM) | MIC Enterococcus faecium (GC 2243) ([2]; Enterococcus faecium (GC 2243)): 32 µg/mL (≈ 23.2 µM) | MIC Enterococcus faecium (GC 4556) ([2]; Enterococcus faecium (GC 4556)): 32 µg/mL (≈ 23.2 µM) | MIC Enterococcus faecium (GC 4557) ([2]; Enterococcus faecium (GC 4557)): 8 µg/mL (≈ 5.8 µM) | MIC Enterococcus faecalis (ATCC 29212) ([2]; strain ATCC 29212): 32 µg/mL (≈ 23.2 µM) | MIC Enterococcus faecalis (GC 2242) ([2]; strain GC 2242): 16 µg/mL (≈ 11.6 µM) | MIC Enterococcus faecium (GC 2243) ([2]; strain GC 2243): 32 µg/mL (≈ 23.2 µM) | MIC Enterococcus faecalis (GC 2691) ([2]; strain GC 2691): 32 µg/mL (≈ 23.2 µM) | MIC Enterococcus faecalis (GC 3059) ([2]; strain GC 3059): 32 µg/mL (≈ 23.2 µM) | MIC Enterococcus faecalis (GC 4552) ([2]; strain GC 4552): 32 µg/mL (≈ 23.2 µM) | MIC Enterococcus faecalis (GC 4553) ([2]; strain GC 4553): 32 µg/mL (≈ 23.2 µM) | MIC Enterococcus faecalis (GC 4554) ([2]; strain GC 4554): 32 µg/mL (≈ 23.2 µM) | MIC Enterococcus faecium (GC 4556) ([2]; strain GC 4556): 32 µg/mL (≈ 23.2 µM) | MIC Enterococcus faecium (GC 4557) ([2]; strain GC 4557): 8 µg/mL (≈ 5.8 µM) | MIC Enterococcus avium (GC 4558) ([2]; strain GC 4558): 32 µg/mL (≈ 23.2 µM) | MIC Enterococcus faecalis (GC 6189) ([2]; strain GC 6189): 32 µg/mL (≈ 23.2 µM) | MIC Escherichia coli (ATCC 25922) ([3]; Escherichia coli (ATCC 25922)): >64 µg/mL | MIC Escherichia coli (GC 4559) ([3]; Escherichia coli (GC 4559)): >64 µg/mL | MIC Escherichia coli (GC 4560) ([3]; Escherichia coli (GC 4560)): 2 µg/mL (≈ 1.45 µM) | MIC Coagulase Negative Staphylococcus (GC 4547) [4]: 4 µg/mL (≈ 2.9 µM) | MIC Coagulase Negative Staphylococcus (GC 4548) [4]: 2 µg/mL (≈ 1.45 µM) | MIC Coagulase Negative Staphylococcus (GC 4549) [4]: 2 µg/mL (≈ 1.45 µM) | MIC Coagulase Negative Staphylococcus (GC 4551) [4]: 8 µg/mL (≈ 5.8 µM) | MIC Coagulase Negative Staphylococcus (GC 6257) [4]: 2 µg/mL (≈ 1.45 µM) | MIC Staphylococcus aureus (ATCC 29213) [4]: 4 µg/mL (≈ 2.9 µM) | MIC Staphylococcus aureus (GC 1131) [4]: 8 µg/mL (≈ 5.8 µM) | MIC Staphylococcus aureus (GC 3051) [4]: 2 µg/mL (≈ 1.45 µM) | MIC Staphylococcus aureus (GC 3053) [4]: 8 µg/mL (≈ 5.8 µM) | MIC Staphylococcus aureus (GC 4541) [4]: 4 µg/mL (≈ 2.9 µM) | MIC Staphylococcus aureus (GC 4542) [4]: 4 µg/mL (≈ 2.9 µM) | MIC Staphylococcus aureus (GC 4544) [4]: 4 µg/mL (≈ 2.9 µM) | MIC Staphylococcus aureus (GC 4545) [4]: 4 µg/mL (≈ 2.9 µM) | MIC Staphylococcus aureus-SMITH (GC 4543) [4]: 4 µg/mL (≈ 2.9 µM) | MIC Staphylococcus haemolyticus (GC 4546) [4]: 2 µg/mL (≈ 1.45 µM) | MIC Staphylococcus aureus (ATCC 29213) ([4]; strain ATCC 29213): 4 µg/mL (≈ 2.9 µM) | MIC Staphylococcus aureus (GC 1131) ([4]; strain GC 1131): 8 µg/mL (≈ 5.8 µM) | MIC Staphylococcus aureus (GC 3051) ([4]; strain GC 3051): 2 µg/mL (≈ 1.45 µM) | MIC Staphylococcus aureus (GC 3053) ([4]; strain GC 3053): 8 µg/mL (≈ 5.8 µM) | MIC Staphylococcus aureus (GC 4541) ([4]; strain GC 4541): 4 µg/mL (≈ 2.9 µM) | MIC Staphylococcus aureus (GC 4542) ([4]; strain GC 4542): 4 µg/mL (≈ 2.9 µM) | MIC Staphylococcus aureus (GC 4544) ([4]; strain GC 4544): 4 µg/mL (≈ 2.9 µM) | MIC Staphylococcus aureus (GC 4545) ([4]; strain GC 4545): 4 µg/mL (≈ 2.9 µM) | MIC Staphylococcus haemolyticus (GC 4546) ([4]; strain GC 4546): 2 µg/mL (≈ 1.45 µM) | MIC Coagulase Negative Staphylococcus (GC 4547) ([4]; strain GC 4547): 4 µg/mL (≈ 2.9 µM) | MIC Coagulase Negative Staphylococcus (GC 4548) ([4]; strain GC 4548): 2 µg/mL (≈ 1.45 µM) | MIC Coagulase Negative Staphylococcus (GC 4549) ([4]; strain GC 4549): 2 µg/mL (≈ 1.45 µM) | MIC Coagulase Negative Staphylococcus (GC 4551) ([4]; strain GC 4551): 8 µg/mL (≈ 5.8 µM) | MIC Coagulase Negative Staphylococcus (GC 6257) ([4]; strain GC 6257): 2 µg/mL (≈ 1.45 µM) | MIC Staphylococcus aureus-SMITH (GC 4543) ([4]; strain SMITH GC 4543): 4 µg/mL (≈ 2.9 µM)
